Experimental data published in US20250333407A1, “Compounds and Their Use for Treatment of Hemoglobinopathies” (Bristol-Myers Squibb Company, priority 2024, published 2025).

Columns and labels:
Type in all cases: cell-based
[1] = molecular target: T1, ZBTB7A (Homo sapiens, UniProt O95365+Q96SW2); assay: HUDEP-2 ZBTB7A HiBiT degradation assay; conditions: HiBiT-tagged ZBTB7A degradation in HUDEP-2 cells, 24 hours of treatment; read-out: ZBTB7A EC50
T1 construct: HUDEP-2 cells engineered to express a HiBiT tag in either the WIZ (Widely interspaced zinc finger) or ZBTB7A
T1 sequence (O95365 whole entry): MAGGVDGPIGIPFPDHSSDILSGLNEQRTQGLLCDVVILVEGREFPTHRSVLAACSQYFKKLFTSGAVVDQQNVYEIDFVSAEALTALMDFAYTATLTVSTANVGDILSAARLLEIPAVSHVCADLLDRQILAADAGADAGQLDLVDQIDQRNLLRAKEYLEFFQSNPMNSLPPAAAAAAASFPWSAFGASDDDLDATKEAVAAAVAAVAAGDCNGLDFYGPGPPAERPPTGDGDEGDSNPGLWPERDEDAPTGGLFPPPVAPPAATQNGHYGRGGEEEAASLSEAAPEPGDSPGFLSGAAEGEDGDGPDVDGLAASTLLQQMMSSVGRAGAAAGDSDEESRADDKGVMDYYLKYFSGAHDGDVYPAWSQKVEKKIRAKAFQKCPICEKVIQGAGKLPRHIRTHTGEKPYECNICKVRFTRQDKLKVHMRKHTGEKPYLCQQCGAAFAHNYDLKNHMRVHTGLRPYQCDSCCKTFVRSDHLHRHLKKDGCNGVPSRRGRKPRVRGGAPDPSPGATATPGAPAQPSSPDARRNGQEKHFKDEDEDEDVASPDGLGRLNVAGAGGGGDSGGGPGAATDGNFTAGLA
T1 sequence (Q96SW2 whole entry): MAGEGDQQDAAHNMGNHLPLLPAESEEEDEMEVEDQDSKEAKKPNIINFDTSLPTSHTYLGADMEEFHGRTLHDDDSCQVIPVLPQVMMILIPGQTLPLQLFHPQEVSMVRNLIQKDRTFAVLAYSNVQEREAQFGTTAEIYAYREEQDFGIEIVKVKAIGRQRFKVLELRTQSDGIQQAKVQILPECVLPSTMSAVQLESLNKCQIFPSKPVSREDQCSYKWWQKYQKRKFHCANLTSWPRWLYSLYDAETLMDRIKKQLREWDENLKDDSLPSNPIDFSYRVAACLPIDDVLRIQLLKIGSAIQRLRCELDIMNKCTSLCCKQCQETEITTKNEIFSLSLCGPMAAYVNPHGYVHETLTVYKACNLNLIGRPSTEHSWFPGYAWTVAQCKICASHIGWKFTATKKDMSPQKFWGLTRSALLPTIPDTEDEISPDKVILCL
T1 sequence (Q16531 whole entry partner): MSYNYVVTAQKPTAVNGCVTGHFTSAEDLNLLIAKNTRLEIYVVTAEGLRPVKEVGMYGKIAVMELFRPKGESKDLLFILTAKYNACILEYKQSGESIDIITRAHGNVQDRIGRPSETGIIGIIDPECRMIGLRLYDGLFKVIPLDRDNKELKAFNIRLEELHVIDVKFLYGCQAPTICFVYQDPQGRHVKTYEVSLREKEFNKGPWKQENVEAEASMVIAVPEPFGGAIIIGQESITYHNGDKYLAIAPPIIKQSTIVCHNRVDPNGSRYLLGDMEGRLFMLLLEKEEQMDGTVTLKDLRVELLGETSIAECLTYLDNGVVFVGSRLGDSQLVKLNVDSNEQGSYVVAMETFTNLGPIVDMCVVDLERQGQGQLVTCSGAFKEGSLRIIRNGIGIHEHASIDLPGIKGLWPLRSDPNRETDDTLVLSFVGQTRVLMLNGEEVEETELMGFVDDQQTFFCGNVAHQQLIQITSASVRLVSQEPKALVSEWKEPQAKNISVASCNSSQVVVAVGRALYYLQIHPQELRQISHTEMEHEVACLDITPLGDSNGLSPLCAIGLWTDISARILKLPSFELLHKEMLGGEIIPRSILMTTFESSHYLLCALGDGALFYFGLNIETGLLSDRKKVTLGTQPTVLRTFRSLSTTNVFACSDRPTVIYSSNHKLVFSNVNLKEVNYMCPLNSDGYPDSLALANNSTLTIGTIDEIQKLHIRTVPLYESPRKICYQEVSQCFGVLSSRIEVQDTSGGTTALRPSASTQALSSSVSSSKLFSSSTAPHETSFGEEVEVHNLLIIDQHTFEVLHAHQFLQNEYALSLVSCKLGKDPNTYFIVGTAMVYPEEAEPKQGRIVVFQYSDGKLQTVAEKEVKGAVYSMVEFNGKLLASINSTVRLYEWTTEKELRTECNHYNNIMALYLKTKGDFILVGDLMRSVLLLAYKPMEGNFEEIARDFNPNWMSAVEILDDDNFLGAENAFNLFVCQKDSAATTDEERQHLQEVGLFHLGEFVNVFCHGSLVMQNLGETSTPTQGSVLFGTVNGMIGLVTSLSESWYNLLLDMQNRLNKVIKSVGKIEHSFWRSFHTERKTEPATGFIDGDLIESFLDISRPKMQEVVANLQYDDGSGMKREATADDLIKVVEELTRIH
Summary of the method: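 HiBiT-tagged HUDEP-2 cells were pre-cultured 48 h in IMDM with EPO, SCF, doxycycline and 5% human plasma, then exposed to compounds at 1.0×10^6 cells/ml for 24 h at 37 °C. Nano-Glo HiBiT lytic luminescence, normalised to DMSO over 10 concentrations, gave EC50 and Y-min.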

[2] = molecular target: T2, WIZ (Homo sapiens, UniProt O95785+Q96SW2); assay: HUDEP-2 WIZ HiBiT degradation assay; conditions: HiBiT-tagged WIZ degradation in HUDEP-2 cells, 24 hours of treatment; read-out: WIZ EC50
T2 construct: HUDEP-2 cells engineered to express a HiBiT tag in either the WIZ (Widely interspaced zinc finger) or ZBTB7A
T2 sequence (O95785 whole entry): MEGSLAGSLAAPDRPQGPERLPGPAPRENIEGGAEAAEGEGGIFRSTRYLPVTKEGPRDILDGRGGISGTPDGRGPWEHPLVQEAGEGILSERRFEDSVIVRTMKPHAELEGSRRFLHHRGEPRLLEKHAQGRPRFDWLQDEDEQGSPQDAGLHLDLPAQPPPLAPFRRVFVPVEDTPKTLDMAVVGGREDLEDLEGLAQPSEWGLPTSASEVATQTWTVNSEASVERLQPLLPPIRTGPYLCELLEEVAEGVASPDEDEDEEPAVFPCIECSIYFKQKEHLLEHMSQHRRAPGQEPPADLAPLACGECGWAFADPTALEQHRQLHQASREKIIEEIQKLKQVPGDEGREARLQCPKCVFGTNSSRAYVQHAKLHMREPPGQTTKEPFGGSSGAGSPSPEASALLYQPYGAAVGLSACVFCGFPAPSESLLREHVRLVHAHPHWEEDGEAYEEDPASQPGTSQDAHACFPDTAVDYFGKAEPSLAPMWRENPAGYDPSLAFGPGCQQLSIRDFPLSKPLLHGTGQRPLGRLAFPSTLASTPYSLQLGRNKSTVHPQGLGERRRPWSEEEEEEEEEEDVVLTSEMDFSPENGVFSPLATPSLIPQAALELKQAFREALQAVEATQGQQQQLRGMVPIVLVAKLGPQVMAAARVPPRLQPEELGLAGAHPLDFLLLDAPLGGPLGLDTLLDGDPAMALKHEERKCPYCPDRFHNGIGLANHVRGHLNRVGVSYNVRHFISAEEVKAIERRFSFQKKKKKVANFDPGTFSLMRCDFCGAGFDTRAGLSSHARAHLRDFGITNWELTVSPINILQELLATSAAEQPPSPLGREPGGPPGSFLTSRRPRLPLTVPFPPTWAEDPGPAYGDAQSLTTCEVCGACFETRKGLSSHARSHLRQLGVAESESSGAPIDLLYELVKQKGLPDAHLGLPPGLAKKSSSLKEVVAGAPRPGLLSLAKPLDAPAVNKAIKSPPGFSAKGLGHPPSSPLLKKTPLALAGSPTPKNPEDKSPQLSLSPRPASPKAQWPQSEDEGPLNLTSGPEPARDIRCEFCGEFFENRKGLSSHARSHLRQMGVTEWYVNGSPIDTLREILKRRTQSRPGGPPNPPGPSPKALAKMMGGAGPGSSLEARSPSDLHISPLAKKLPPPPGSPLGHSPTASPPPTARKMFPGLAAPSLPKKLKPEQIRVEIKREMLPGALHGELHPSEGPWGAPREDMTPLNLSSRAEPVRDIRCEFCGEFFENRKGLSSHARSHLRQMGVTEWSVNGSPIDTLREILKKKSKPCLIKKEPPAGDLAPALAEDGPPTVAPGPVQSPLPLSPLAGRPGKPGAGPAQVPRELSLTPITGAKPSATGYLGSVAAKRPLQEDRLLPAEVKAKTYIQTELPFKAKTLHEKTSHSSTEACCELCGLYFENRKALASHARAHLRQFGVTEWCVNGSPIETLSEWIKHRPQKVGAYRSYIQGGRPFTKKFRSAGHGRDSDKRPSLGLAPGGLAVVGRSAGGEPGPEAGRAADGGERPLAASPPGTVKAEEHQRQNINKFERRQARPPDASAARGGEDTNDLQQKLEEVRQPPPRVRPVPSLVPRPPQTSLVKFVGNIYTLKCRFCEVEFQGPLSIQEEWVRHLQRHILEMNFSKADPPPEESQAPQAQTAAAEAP
T2 sequence (Q96SW2 whole entry): as the sequence (Q96SW2 whole entry) above
T2 sequence (Q16531 whole entry partner): as the sequence (Q16531 whole entry partner) above
Summary of the method: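 HiBiT-tagged HUDEP-2 cells at 1.0×10^6 cells/ml in SFEM II with SCF, EPO, dexamethasone and doxycycline, treated 24 h at 37 °C with a 10-point series ([…]). Luminescence after HiBiT lytic detection, normalized to DMSO; EC50 and Y-min from fitted curves.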

[3] = system: HbF; assay: HbF HiBiT induction assay in HUDEP-2 cells; conditions: HUDEP-2 cells with HiBiT tag in HBG1/2, 72 hours of treatment; area under the dose response curve, higher AUC = greater HbF induction
Summary of the method: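 HUDEP-2 cells carrying a HiBiT tag on HBG1/2 were exposed to compounds for 72 h at 37° C, 5% CO2, in IMDM with EPO, hSCF, DOX, transferrin, insulin, heparin and 5% human plasma. HiBiT luminescence was read after lytic detection; HbF induction is expressed as dose-response AUC, alongside EC50 and Ymax.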

Structure (SMILES)	DC50 [1]	DC50 [2]	HBF AUC [3]
CO[C@H]1CC[C@H](c2cc3c(cc2Nc2cccc4c2C(=O)N([C@H]2CCC(=O)NC2=O)C4=O)N(C)C(=O)CC3)CC1 [Compound 91, 2-((S)-2,6-dioxopiperidin-3-yl)-4-((6-((1r,4S)-4-methoxycyclohexyl)-1-methyl-2-oxo-1,2,3,4-tetrahydroquinolin-7-yl)amino)isoindoline-1,3-dione]	4 nM	4 nM	++ (++ = 100 ≤ AUC < 150)
Cc1cncc(-c2c(Nc3cccc4c3C(=O)N([C@H]3CCC(=O)NC3=O)C4=O)cc3c(c2F)OCC(=O)N3C)c1 [Compound 69, (S)-2-(2,6-dioxopiperidin-3-yl)-4-((8-fluoro-4-methyl-7-(5-methylpyridin-3-yl)-3-oxo-3,4-dihydro-2H-benzo[b][1,4]oxazin-6-yl)amino)isoindoline-1,3-dione]	54 nM	20 nM	+ (+ = 15 ≤ AUC < 100)
Cc1cc(-c2cc3c(cc2Nc2cccc4c2C(=O)N([C@H]2CCC(=O)NC2=O)C4=O)N(C)C(=O)[C@H](C)O3)cc(C(F)F)n1 [Compound 48, 4-(((S)-7-(2-(difluoromethyl)-6-methylpyridin-4-yl)-2,4-dimethyl-3-oxo-3,4-dihydro-2H-benzo[b][1,4]oxazin-6-yl)amino)-2-((S)-2,6-dioxopiperidin-3-yl)isoindoline-1,3-dione]	52 nM	31 nM	++ (++ = 100 ≤ AUC < 150)
CC(=O)N1CCCC(c2cc3c(cc2Nc2cccc4c2C(=O)N([C@H]2CCC(=O)NC2=O)C4=O)N(C)C(=O)CO3)C1 (stereo partly drawn) [Compound 63, 4-((7-(1-acetylpiperidin-3-yl)-4-methyl-3-oxo-3,4-dihydro-2H-benzo[b][1,4]oxazin-6-yl)amino)-2-((S)-2,6-dioxopiperidin-3-yl)isoindoline-1,3-dione]	14 nM	16 nM	++ (++ = 100 ≤ AUC < 150)
Cc1cc(-c2cc3c(cc2Nc2cccc4c2C(=O)N([C@H]2CCC(=O)NC2=O)C4=O)N(C)C(=O)OC3C)ccn1 (stereo partly drawn) [Compound 70, 4-((1,4-dimethyl-6-(2-methylpyridin-4-yl)-2-oxo-1,4-dihydro-2H-benzo[d][1,3]oxazin-7-yl)amino)-2-((S)-2,6-dioxopiperidin-3-yl)isoindoline-1,3-dione]	15 nM	19 nM	++ (++ = 100 ≤ AUC < 150)
Cc1cc(-c2cc3c(cc2Nc2cccc4c2C(=O)N([C@H]2CCC(=O)NC2=O)C4=O)N(C)C(=O)O[C@H]3C)ccn1 [Compound 22, 4-(((S)-1,4-dimethyl-6-(2-methylpyridin-4-yl)-2-oxo-1,4-dihydro-2H-benzo[d][1,3]oxazin-7-yl)amino)-2-((S)-2,6-dioxopiperidin-3-yl)isoindoline-1,3-dione]	13 nM	17 nM	+++ (+++ = AUC ≥ 150)
Cc1cc(-c2cc3c(cc2Nc2cccc4c2C(=O)N([C@H]2CCC(=O)NC2=O)C4=O)N(C)C(=O)OC3)ccn1 [Compound 11, (S)-2-(2,6-dioxopiperidin-3-yl)-4-((1-methyl-6-(2-methylpyridin-4-yl)-2-oxo-1,4-dihydro-2H-benzo[d][1,3]oxazin-7-yl)amino)isoindoline-1,3-dione]	17 nM	21 nM	++ (++ = 100 ≤ AUC < 150)
CCOc1cc(-c2cc3c(cc2Nc2cccc4c2C(=O)N(C2CCC(=O)NC2=O)C4=O)N(C)C(=O)CO3)ccn1 (stereo not drawn) [Compound 52, 2-(2,6-dioxopiperidin-3-yl)-4-((7-(2-ethoxypyridin-4-yl)-4-methyl-3-oxo-3,4-dihydro-2H-benzo[b][1,4]oxazin-6-yl)amino)isoindoline-1,3-dione]	143 nM	12 nM	+ (+ = 15 ≤ AUC < 100)
Cc1cc(-c2cc3c(cc2Nc2cccc4c2C(=O)N([C@H]2CCC(=O)NC2=O)C4=O)N(C)C(=O)CO3)cc(N)n1 [Compound 10, (S)-4-((7-(2-amino-6-methylpyridin-4-yl)-4-methyl-3-oxo-3,4-dihydro-2H-benzo[b][1,4]oxazin-6-yl)amino)-2-(2,6-dioxopiperidin-3-yl)isoindoline-1,3-dione]	20 nM	12 nM	++ (++ = 100 ≤ AUC < 150)
Cc1cc(-c2cc3c(cc2Nc2cccc4c2C(=O)N([C@H]2CCC(=O)NC2=O)C4=O)N(C)C(=O)[C@H](C)C3)ccn1 [Compound 87, 4-(((R)-1,3-dimethyl-6-(2-methylpyridin-4-yl)-2-oxo-1,2,3,4-tetrahydroquinolin-7-yl)amino)-2-((S)-2,6-dioxopiperidin-3-yl)isoindoline-1,3-dione]	16 nM	12 nM	+ (+ = 15 ≤ AUC < 100)
Cc1cc(-c2cc3c(cc2Nc2cccc4c2C(=O)N([C@H]2CCC(=O)NC2=O)C4=O)N(C)C(=O)CO3)cc(C(F)F)n1 [Compound 47, (S)-4-((7-(2-(difluoromethyl)-6-methylpyridin-4-yl)-4-methyl-3-oxo-3,4-dihydro-2H-benzo[b][1,4]oxazin-6-yl)amino)-2-(2,6-dioxopiperidin-3-yl)isoindoline-1,3-dione]	49 nM	43 nM	+++ (+++ = AUC ≥ 150)
Cc1cc(-c2cc3c(cc2Nc2cccc4c2C(=O)N([C@H]2CCC(=O)NC2=O)C4=O)N(C)C(=O)CO3)ccn1 [Compound 18, (S)-2-(2,6-dioxopiperidin-3-yl)-4-((4-methyl-7-(2-methylpyridin-4-yl)-3-oxo-3,4-dihydro-2H-benzo[b][1,4]oxazin-6-yl)amino)isoindoline-1,3-dione]	11 nM	11 nM	+++ (+++ = AUC ≥ 150)
Cc1cc(-c2cc3c(cc2Nc2cccc4c2C(=O)N(C2CCC(=O)NC2=O)C4=O)N(C)C(=O)CC3(C)C)ccn1 (stereo not drawn) [Compound 83, 2-(2,6-dioxopiperidin-3-yl)-4-((1,4,4-trimethyl-6-(2-methylpyridin-4-yl)-2-oxo-1,2,3,4-tetrahydroquinolin-7-yl)amino)isoindoline-1,3-dione]	13 nM	8 nM	+ (+ = 15 ≤ AUC < 100)
COc1ccc(-c2cc3c(cc2Nc2cccc4c2C(=O)N([C@H]2CCC(=O)NC2=O)C4=O)N(C)C(=O)O[C@H]3C)cc1F [Compound 71, 2-((S)-2,6-dioxopiperidin-3-yl)-4-(((S)-6-(3-fluoro-4-methoxyphenyl)-1,4-dimethyl-2-oxo-1,4-dihydro-2H-benzo[d][1,3]oxazin-7-yl)amino)isoindoline-1,3-dione]	10 nM	16 nM	++ (++ = 100 ≤ AUC < 150)
CCOc1cc(-c2cc3c(cc2Nc2cccc4c2C(=O)N(C2CCC(=O)NC2=O)C4=O)N(C)C(=O)CO3)cc(C)n1 (stereo not drawn) [Compound 16, 2-(2,6-dioxopiperidin-3-yl)-4-((7-(2-ethoxy-6-methylpyridin-4-yl)-4-methyl-3-oxo-3,4-dihydro-2H-benzo[b][1,4]oxazin-6-yl)amino)isoindoline-1,3-dione]	73 nM	32 nM	+ (+ = 15 ≤ AUC < 100)
Cc1cncc(-c2cc3c(cc2Nc2cccc4c2C(=O)N([C@H]2CCC(=O)NC2=O)C4=O)N(C)C(=O)[C@@H](C)O3)c1 [Compound 42, 4-(((R)-2,4-dimethyl-7-(5-methylpyridin-3-yl)-3-oxo-3,4-dihydro-2H-benzo[b][1,4]oxazin-6-yl)amino)-2-((S)-2,6-dioxopiperidin-3-yl)isoindoline-1,3-dione]	18 nM	9 nM	+ (+ = 15 ≤ AUC < 100)
CC(=O)N1CCC(c2cc3c(cc2Nc2cccc4c2C(=O)N(C2CCC(=O)NC2=O)C4=O)N(C)C(=O)CC3)CC1 (stereo not drawn) [Compound 84, 4-((6-(1-acetylpiperidin-4-yl)-1-methyl-2-oxo-1,2,3,4-tetrahydroquinolin-7-yl)amino)-2-(2,6-dioxopiperidin-3-yl)isoindoline-1,3-dione]	19 nM	7 nM	+++ (+++ = AUC ≥ 150)
CN1C(=O)COc2cc([C@H]3CC[C@H](C#N)CC3)c(Nc3cccc4c3C(=O)N([C@H]3CCC(=O)NC3=O)C4=O)cc21 [Compound 68, (1S,4r)-4-(6-((2-((S)-2,6-dioxopiperidin-3-yl)-1,3-dioxoisoindolin-4-yl)amino)-4-methyl-3-oxo-3,4-dihydro-2H-benzo[b][1,4]oxazin-7-yl)cyclohexane-1-carbonitrile]	6 nM	3 nM	+++ (+++ = AUC ≥ 150)
Cc1cc(-c2cc3c(cc2Nc2cccc4c2C(=O)N(C2CCC(=O)NC2=O)C4=O)N(C)S(=O)(=O)CC3)ccn1 (stereo not drawn) [Compound 50, 2-(2,6-dioxopiperidin-3-yl)-4-((1-methyl-6-(2-methylpyridin-4-yl)-2,2-dioxido-3,4-dihydro-1H-benzo[c][1,2]thiazin-7-yl)amino)isoindoline-1,3-dione]	28 nM	18 nM	+ (+ = 15 ≤ AUC < 100)
